One experiment concerns the target T1, canine CCK2 receptor (Canis lupus familiaris, UniProt P30552).
T1 sequence (P30552 1-453): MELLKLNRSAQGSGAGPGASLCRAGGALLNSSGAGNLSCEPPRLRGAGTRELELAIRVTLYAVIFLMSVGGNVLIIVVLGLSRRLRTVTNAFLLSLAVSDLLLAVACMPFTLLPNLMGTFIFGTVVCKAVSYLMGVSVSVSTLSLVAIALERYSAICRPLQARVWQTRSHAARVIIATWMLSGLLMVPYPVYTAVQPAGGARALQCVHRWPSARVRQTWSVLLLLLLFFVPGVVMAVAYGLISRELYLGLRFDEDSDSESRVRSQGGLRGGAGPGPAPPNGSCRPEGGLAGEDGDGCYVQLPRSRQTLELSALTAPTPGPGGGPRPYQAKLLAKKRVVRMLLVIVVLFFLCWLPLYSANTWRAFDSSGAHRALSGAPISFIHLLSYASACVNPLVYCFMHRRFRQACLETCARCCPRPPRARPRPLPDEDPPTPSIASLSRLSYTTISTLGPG
The experiment is described as follows: competition binding of [125I]-BH-CCK-8S at canine CCK2 receptor. The following applies: for fold higher affinity at the canine CCK2 receptor compared to the canine CCK1 receptor: canine CCK2 over canine CCK1.

Another experiment concerns the target T2, canine CCK1 receptor (Canis lupus familiaris, UniProt Q5D0K2).
T2 construct: expressed in transfected cells
T2 sequence (Q5D0K2 1-428): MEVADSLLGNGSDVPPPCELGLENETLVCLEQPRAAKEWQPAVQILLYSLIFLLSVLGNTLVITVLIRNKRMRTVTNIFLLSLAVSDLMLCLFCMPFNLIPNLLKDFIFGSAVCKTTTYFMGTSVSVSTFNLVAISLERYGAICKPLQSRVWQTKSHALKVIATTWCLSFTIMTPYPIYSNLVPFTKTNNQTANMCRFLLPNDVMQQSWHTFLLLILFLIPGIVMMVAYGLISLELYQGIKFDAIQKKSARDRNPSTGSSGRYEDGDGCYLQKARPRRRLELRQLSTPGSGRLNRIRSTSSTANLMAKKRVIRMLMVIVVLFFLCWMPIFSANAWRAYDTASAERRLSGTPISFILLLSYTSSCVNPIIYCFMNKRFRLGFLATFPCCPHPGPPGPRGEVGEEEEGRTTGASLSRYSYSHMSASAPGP
Description: competition binding of [125I]-BH-CCK-8S at cloned canine CCK1 receptor stably expressed in CHO-K cells.

For experiment [1], the system named is putative CCK1 receptor binding sites labeled with [3H]-L-364,718. The following applies: canine intestine (Mao et al., 1995); cited from earlier work.
The target of a further experiment is T3, Canine CCK1: Wild-type (Canis lupus familiaris, UniProt Q5D0K2).
T3 construct: The ORF encodes a 428 amino-acid protein; expressed in transfected cells; host or cells: HEK-293 cells, transient
T3 sequence (Q5D0K2 1-428): T2 sequence (Q5D0K2 1-428)
The experiment is described as follows: competition binding at wild-type canine CCK1 receptor transiently transfected in HEK cells. The following applies: n = 3, ± s.e. mean; for Ki: read-out: pKI (affinity value, -log equilibrium dissociation constant) (converted).

The target of another experiment is T4, human CCK1 receptor (Homo sapiens, UniProt P32238).
T4 construct: expressed in transfected cells
T4 sequence (P32238 1-428): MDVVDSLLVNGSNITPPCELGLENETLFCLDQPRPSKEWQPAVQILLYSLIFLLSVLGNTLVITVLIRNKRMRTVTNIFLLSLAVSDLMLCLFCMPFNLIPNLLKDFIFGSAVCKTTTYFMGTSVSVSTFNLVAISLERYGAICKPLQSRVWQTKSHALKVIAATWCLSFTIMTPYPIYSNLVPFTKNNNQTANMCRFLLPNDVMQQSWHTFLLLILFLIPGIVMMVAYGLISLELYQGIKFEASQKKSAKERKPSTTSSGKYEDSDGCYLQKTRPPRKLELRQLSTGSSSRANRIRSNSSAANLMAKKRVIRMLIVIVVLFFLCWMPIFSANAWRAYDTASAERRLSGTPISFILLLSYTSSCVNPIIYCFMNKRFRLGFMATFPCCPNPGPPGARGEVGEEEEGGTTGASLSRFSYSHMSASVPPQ
The experiment is described as follows: competition binding of [125I]-BH-CCK-8S at cloned human CCK1 receptor.

The next experiment addresses T5, Canine CCK1: Variant #1 (Canis lupus familiaris, UniProt Q5D0K2, G258S/L413V/V400A).
T5 construct: plasmid DNAs containing the respective variant canine CCK1 receptor cDNAs and the wild type cDNA were transiently transfected; expressed in transfected cells; host or cells: HEK-293 cells, transient
T5 sequence (Q5D0K2 1-428 G258S/V400A/L413V): T2 sequence (Q5D0K2 1-428) with G258S, V400A, L413V
The experiment is described as follows: competition binding at variant #1 canine CCK1 receptor transiently transfected in HEK cells. The following applies: Canine CCK1 variant #1, transiently transfected in HEK cells, n = 3, ± s.e. mean; for Ki: read-out: pKI (affinity value, -log equilibrium dissociation constant) (converted).

Experiment [2] concerns the target T6, guinea-pig pancreatic CCK1 receptors (Cavia porcellus, UniProt Q63931).
T6 construct: host or cells: guinea-pig pancreas
T6 sequence (Q63931 1-430): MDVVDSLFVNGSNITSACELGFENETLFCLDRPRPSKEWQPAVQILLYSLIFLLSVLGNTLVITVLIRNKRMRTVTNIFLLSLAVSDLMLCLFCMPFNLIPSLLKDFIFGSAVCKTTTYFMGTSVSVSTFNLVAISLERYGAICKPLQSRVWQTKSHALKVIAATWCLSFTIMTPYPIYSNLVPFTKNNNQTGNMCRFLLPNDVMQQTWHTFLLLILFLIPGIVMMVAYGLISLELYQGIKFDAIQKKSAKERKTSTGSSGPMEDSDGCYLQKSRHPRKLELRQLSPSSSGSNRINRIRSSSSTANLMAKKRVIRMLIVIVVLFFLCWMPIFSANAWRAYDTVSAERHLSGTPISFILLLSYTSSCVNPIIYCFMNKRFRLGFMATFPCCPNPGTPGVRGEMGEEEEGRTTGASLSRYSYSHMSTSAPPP
The following applies: guinea-pig pancreatic CCK1 receptors (Takinami et al., 1997); cited from earlier work.

Experiment [3] has as its target T7, canine CCK1 receptor variant #2 (canine, UniProt Q5D0K2 1-428).
T7 construct: Six amino-acid differences from wild type; Transiently expressed in HEK-293 cells and assayed as membrane preparations; also called canine CCK1 variant #2 receptor
T7 chain: T2 sequence (Q5D0K2 1-428) with S12G, L27P, L99P, G258S, V400A, L413V
Description: radioligand binding (20 pM [125I]-BH-CCK-8S) against increasing membrane protein, transiently transfected HEK cells.

Experiment [4] addresses T8, wild-type canine CCK1 receptor (canine, UniProt Q5D0K2 1-428).
T8 construct: Full-length receptor, stably expressed in CHO-K cells or transiently in HEK-293 cells; It was assayed as membrane preparations of those cells; also called canine cholecystokinin 1 receptor; control wild-type canine CCK1R protein
T8 sequence: T2 sequence (Q5D0K2 1-428)
The experiment is described as follows: saturation radioligand binding, membranes of stably transfected CHO cells, first phase of the isotherm.
Description: The homogenate was centrifuged (800×g for 10 min) and the pellet discarded. The supernatant was re-centrifuged (39,800×g for 25 min) and the final pellet re-suspended in 20 ml assay buffer (cell concentration: 25×10⁵ cells ml⁻¹). […] All binding assays were conducted in 96 well Multiscreen GF/B filter plates (Millipore, Billerica, Mass., USA) that were pre-soaked in assay buffer for 1 h. For competition studies, cell membranes (45 μl) were incubated with 60 μM [¹²⁵I]-BH-CCK-8S (50 μl) in the presence of competing ligand (15 μl) for 90 min (total volume of 150 μl). […] The bound radioactivity was separated by filtration using a Multiscreen Resist manifold (Millipore, Billericay, Mass., USA). The filters were washed three times with ice-cold PBS (pH 7.5) and radioactivity retained on the filters was measured by liquid scintillation counting using a TopCount (Packard BioScience, Boston, Mass.). All experiments were performed in triplicate.

Where [5] appears, read: Canine CCK2, [125I]-BH-CCK-8S radiolabel, n = 3, ± s.e. mean.
Where [6] appears, read: Canine CCK2, [125I]-BH-CCK-8S radiolabel, n = 3, ± s.e. mean, read-out: pKI (affinity value, -log equilibrium dissociation constant) (converted).
The mark [7] stands for this setting: Canine CCK1, CHO-K cells, [125I]-BH-CCK-8S radiolabel, n = 3, ± s.e. mean.
[8] abbreviates: Canine CCK1, CHO-K cells, [125I]-BH-CCK-8S radiolabel, n = 3, ± s.e. mean, read-out: pKI (affinity value, -log equilibrium dissociation constant) (converted).
Where [9] appears, read: Human CCK1, [125I]-BH-CCK-8S radiolabel, n = 3, ± s.e. mean.
[10] abbreviates: Human CCK1, [125I]-BH-CCK-8S radiolabel, n = 3, ± s.e. mean, read-out: pKI (affinity value, -log equilibrium dissociation constant) (converted).

Positions count from the first letter of the chain named. Read-outs that look alike come from different tables or passages of the source. Square brackets hold non-standard residues; d marks the D form. Ends that are not written are not given here. sY = N[C@@H](Cc1ccc(OS(=O)(=O)O)cc1)C(=O)O

Description for human CCK1 receptor: For radioligand binding studies, the cells were harvested by cell scraping and resulting pellets immediately frozen at −80° C. (approximately 50×10^6 cells/pellet). Frozen cell pellets were defrosted on ice in 15 ml of assay buffer (composition; 10 mM HEPES, 130 mM NaCl, 4.7 mM KCl, 5 mM MgCl2, bacitracin 0.089; pH 7.2 at 21±3° C.) and then homogenized (setting 10, 7×3 s; Polytron; Brinkmann Instruments). The homogenate was centrifuged (800×g for 10 min) and the pellet discarded. The supernatant was re-centrifuged (39,800×g for 25 min) and the final pellet re-suspended in 20 ml assay buffer (cell concentration: 25×10^5 cells ml^−1). Protein concentration was determined using BCA Protein Assay Kit (Pierce, Rockford, Ill.). All binding assays were conducted in 96 well Multiscreen GF/B filter plates (Millipore, Billerica, Mass., USA) that were pre-soaked in assay buffer for 1 h. […] Nonspecific binding was determined by inclusion of 10 μM 2-NAP (a CCK1 receptor selective antagonist; see, e.g., Hull et al., 1993, Br. J. Pharmacol., 108:734-740). All radioligand binding studies were conducted in the presence of the CCK2 receptor-selective antagonist PD-134,308 at a concentration estimated to occupy 99% of human CCK2 receptors (0.3 μM; se, e.g., Hughes et al., 1990, Proc. Natl. Acad. Sci. U.S.A., 87(17):6728-6732; Hunter et al., 1993, Mol. Pharmacol., 43:595-602). The bound radioactivity was separated by filtration using a Multiscreen Resist manifold (Millipore, Billericay, Mass., USA). The filters were washed three times with ice-cold PBS (pH 7.5) and radioactivity retained on the filters was measured by liquid scintillation counting using a TopCount (Packard BioScience, Boston, Mass.). All experiments were performed in triplicate.
Equilibrium dissociation constant (K1) values were assumed to be equal to the IC50 values obtained from the logistic curve fit as the radiolabel concentrations used in the assays were always below the KD of the radiolabel. The equilibrium dissociation constants (K1) values were calculated from the midpoint locations (IC50) following Cheng & Prusoff, eqn.
Competition-inhibition studies were conducted on the canine and human CCK1 receptor using a cell-protein concentration within the linear range of the cell number curve (80 μg/ml, cell number curves not shown).

For `CN1C(=O)[C@@H](NC(=O)c2cc3ccccc3[nH]2)N=C(c2ccccc2)c2ccccc21` [L-364,718], the “nH (Hill slope)” value at canine CCK2 receptor (setting [5]) is reported as 0.87 ± 0.06. For the same molecule, the Ki at canine CCK2 receptor (setting [6]) was 24 nM.
With `Cc1cccc(NC(=O)N[C@@H]2N=C(c3ccccc3)c3ccccc3N(CC(=O)c3ccccc3C)C2=O)c1` [YM022, 1-[(R)-2,3-dihydro-1-(2-methylphenacyl)-2-oxo-5-phenyl-1H-1,4-benzodiazepin-3-yl]-3-(3-methylphenyl)urea], the “nH (Hill slope)” value came out at 1.09 ± 0.13 at canine CCK1 receptor (setting [7]); 0.92 ± 0.10 at canine CCK2 receptor (setting [5]); 1.17 ± 0.30 at Canine CCK1: Wild-type; 1.15 ± 0.14 at human CCK1 receptor (setting [9]); 1.39 ± 0.39 at Canine CCK1: Variant #1. Further, the Ki on canine CCK1 receptor (setting [8]) was 5.25 nM; on canine CCK2 receptor it was 0.195 nM; on Canine CCK1: Wild-type it was 11 nM; on human CCK1 receptor (setting [10]), 7.76 nM; on Canine CCK1: Variant #1, 8.32 nM. In addition, the “fold higher affinity at the canine CCK2 receptor compared to the canine CCK1 receptor” value at canine CCK2 receptor is 27 fold. The “inhibitory effect at [3H]-L-364,718 binding sites” value in [1] is “no inhibitory effect”.
`CNc1cccc(NC(=O)N[C@@H]2N=C(c3ccccn3)c3ccccc3N(CC(=O)C(C)(C)C)C2=O)c1` [YF476]: the “nH (Hill slope)” value worked out at 0.88 ± 0.08 on canine CCK1 receptor (setting [7]); 0.91 ± 0.10 at canine CCK2 receptor (setting [5]); 0.60 ± 0.22 on Canine CCK1: Wild-type; 0.95 ± 0.07 at human CCK1 receptor (setting [9]); 1.14 ± 0.37 at Canine CCK1: Variant #1. The Ki is 12.3 nM on canine CCK1 receptor (setting [8]); 1.05 nM at canine CCK2 receptor (setting [6]); 12 nM on Canine CCK1: Wild-type; 13.5 nM on human CCK1 receptor (setting [10]); 15.1 nM on Canine CCK1: Variant #1. Moreover, the “fold higher affinity at the canine CCK2 receptor compared to the canine CCK1 receptor” value on canine CCK2 receptor is reported as ~12 fold. Moreover, the “reported pK1 value” in experiment [2] is ~6.5.
`CCCCCN(CCCOC)C(=O)[C@@H](CCC(=O)O)NC(=O)c1ccc(Cl)c(Cl)c1` [dexloxiglumide, (R)-4-(3,4-Dichloro-benzoylamino)-4-[(3-methoxy-propyl)-pentyl-carbamoyl]-butyric acid]: the “nH (Hill slope)” value was found to be 0.83 ± 0.13 on canine CCK1 receptor (setting [7]); 0.71 ± 0.09 on canine CCK2 receptor (setting [5]); 1.33 ± 0.43 on Canine CCK1: Wild-type; 0.91 ± 0.18 at human CCK1 receptor (setting [9]); 0.90 ± 0.17 on Canine CCK1: Variant #1. Moreover, the Ki was 29.5 nM on canine CCK1 receptor (setting [8]); 2750 nM at canine CCK2 receptor (setting [6]); 16.6 nM on Canine CCK1: Wild-type; 29.5 nM at human CCK1 receptor (setting [10]); 16.6 nM at Canine CCK1: Variant #1. Also, the “fold higher affinity at the canine CCK1 receptor (compared to canine CCK2)” value on canine CCK1 receptor (canine CCK1 over canine CCK2) is 93 fold.
As to `Cc1cccc(NC(=O)N[C@@H]2N=C(c3ccccc3)c3ccccc3N(C)C2=O)c1` [L-365,260, 3R(+)—N-(2,3-dihydro-1-methyl-2-oxo-5-phenyl-1H-1,4-benzodiazepin-3-yl)-N′-(3-methylphenyl)urea], the Ki was 245 nM on canine CCK1 receptor; 93.3 nM at canine CCK2 receptor; 219 nM on Canine CCK1: Wild-type; 245 nM at human CCK1 receptor; 155 nM at Canine CCK1: Variant #1. The “nH (Hill slope)” value on canine CCK1 receptor (setting [7]) worked out at 1.17 ± 0.09; at canine CCK2 receptor (setting [5]), 0.95 ± 0.08; on Canine CCK1: Wild-type it was 0.96 ± 0.32; on human CCK1 receptor (setting [9]) it was 1.32 ± 0.14; at Canine CCK1: Variant #1, 1.08 ± 0.33. Also, the “fold higher affinity at the canine CCK2 receptor compared to the canine CCK1 receptor” value at canine CCK2 receptor was ~2.6 fold.

B1: [^125I]-BH-CCK-8S (peptide, UniProt P06307 96-103, looked up)
peptide: {BH(125I)}-D[sY]MGWMDF
modifications: not fully specified (C-terminus); ends and bridges not checked; also: sulfated, site not given here, 125I Bolton-Hunter conjugate, site not given here
notes: Radioligand; also called Bolton-Hunter conjugated sulfated CCK-8
With B1, the binding result in experiment [3] was “no binding (tested: 2500 µg/ml protein)”. Moreover, the pKD in experiment [4] is 10.5 pKD (negative log of KD).

Source of the values: patent US20080124741A1, “Canine Cholecystokinin 1 Receptor Materials And Their Use” (priority 2004, published 2008).
